Experimental data reported in patent US6737383B1, “Herbicidal oxadiazolidines” (priority 1999, dated 2004).

Experiments:
crabgrass = assay: Test B pre/postemergence crabgrass; format: in vivo, Digitaria sanguinalis
How it was run: (§1)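 Herbicidal effect was estimated by eye on a ten-point control scale after plants spent twelve to sixteen days in a greenhouse following soil or foliar treatment. Foliar sprays targeted plants at one to four leaves; all doses were formulated in a non-phytotoxic solvent with surfactant.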

pigweed = assay: Test B pre/postemergence pigweed; format: in vivo, Amaranthus retroflexus; conditions: for Plant response rating, Redroot pigweed: scale of 0 to 10 where 0 is no effect and 10 is complete control
How it was run: as §1

rice = assay: Test B flood test rice; format: in vivo, Oryza sativa
How it was run: (§2)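 Flood test on plants grown to the 2-leaf stage; treated plants kept in greenhouse twelve to sixteen days, then visually rated against controls on a 0 (no effect) to 10 (complete control) scale.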

corn = assay: Test B pre/postemergence corn; format: in vivo, Zea mays
How it was run: as §1

bamyardgrass = assay: Test B flood test barnyardgrass; format: in vivo, Echinochloa crus-galli
How it was run: as §2

sugar beet = assay: Test B pre/postemergence sugar beet; format: in vivo, Beta vulgaris; conditions: for Plant response rating, Sugarbeets: scale of 0 to 10 where 0 is no effect and 10 is complete control
How it was run: as §1

duck salad = assay: Test B flood test duck salad; format: in vivo, Heteranthera limosa
How it was run: as §2

velvetleaf = assay: Test B pre/postemergence velvetleaf; format: in vivo, Abutilon theophrasti; conditions: for Plant response rating, Velvetleaf: scale of 0 to 10 where 0 is no effect and 10 is complete control
How it was run: as §1

cocklebur = assay: Test B pre/postemergence cocklebur; format: in vivo, Xanthium strumarium
How it was run: as §1

rape = assay: Test B pre/postemergence rape; format: in vivo, Brassica napus; conditions: for Plant response rating, Rape: scale of 0 to 10 where 0 is no effect and 10 is complete control
How it was run: as §1

purple nutsedge = assay: Test B pre/postemergence purple nutsedge; format: in vivo, Cyperus rotundus; conditions: for Plant response rating, Nutsedge: scale of 0 to 10 where 0 is no effect and 10 is complete control
How it was run: as §1

blackgrass = assay: Test B pre/postemergence blackgrass; format: in vivo, Alopecurus myosuroides
How it was run: as §1

smallflower flatsedge = assay: Test B flood test smallflower flatsedge; format: in vivo, Cyperus difformis
How it was run: as §2

wild oat = assay: Test B pre/postemergence wild oat; format: in vivo, Avena fatua; conditions: for Plant response rating, Wild oats: scale of 0 to 10 where 0 is no effect and 10 is complete control
How it was run: as §1

morningglory = assay: Test B pre/postemergence morningglory; format: in vivo, Ipomoea hederacea; conditions: for Plant response rating, Morningglory: scale of 0 to 10 where 0 is no effect and 10 is complete control
How it was run: as §1

wheat = assay: Test B pre/postemergence wheat; format: in vivo, Triticum aestivum; conditions: for Plant response rating, Wheat: scale of 0 to 10 where 0 is no effect and 10 is complete control
How it was run: as §1

[1] = Postemergence, Rate 250 g/ha, scale 0 to 10
[2] = Postemergence, Rate 500 g/ha, scale of 0 to 10 where 0 is no effect and 10 is complete control
[3] = Preemergence, Rate 62 g/ha, scale of 0 to 10 where 0 is no effect and 10 is complete control
[4] = Preemergence, Rate 125 g/ha, scale of 0 to 10 where 0 is no effect and 10 is complete control
[5] = Preemergence, Rate 250 g/ha, scale 0 to 10, 0 is no effect, 10 is complete control
[6] = Preemergence, Rate 500 g/ha, scale 0 to 10, 0 is no effect, 10 is complete control
[7] = Rate 62 g/ha, Postemergence, scale 0 to 10 (0 no effect, 10 complete control)
[8] = Rate 125 g/ha, Postemergence, scale 0 to 10, 0 is no effect, 10 is complete control
[9] = Rate 62 g/ha, flood test species, Pre-emergence, visual evaluation after twelve to sixteen days
[10] = Rate 125 g/ha, under heading Pre-emergence, flood test species, visual evaluation after twelve to sixteen days
[11] = Rate 250 g/ha, Pre-emergence (flood test species), scale 0 to 10, 0 is no effect, 10 is complete control
[12] = Rate 500 g/ha, Pre-emergence, flood test species, scale 0 to 10 (0 no effect, 10 complete control)

C=CC(CC)n1c(=O)on(C(=O)N(c2ccccc2)C(C)C)c1=O (stereo not shown) [Compound 455]
Crabgrass plant response rating (crabgrass; [1]): 4
Crabgrass plant response rating (crabgrass; [2]): 9
Plant response rating, Crabgrass (crabgrass; [3]): 5
Plant response rating, Crabgrass (crabgrass; [4]): 5
Crabgrass plant response rating (crabgrass; [5]): 10
Crabgrass plant response rating (crabgrass; [6]): 10
Crabgrass plant response rating (crabgrass; [7]): 4
Redroot pigweed plant response rating (pigweed; [1]): 5
Plant response rating, Redroot pigweed (pigweed; Preemergence, Rate 62 g/ha): 7
Plant response rating, Redroot pigweed (pigweed; Preemergence, Rate 125 g/ha): 10
Redroot pigweed plant response rating (pigweed; [5]): 10
Redroot pigweed plant response rating (pigweed; [6]): 10
Redroot pigweed plant response rating (pigweed; [7]): 2
Redroot pigweed plant response rating (pigweed; [8]): 2
Plant response rating, Rice (0 to 10 scale, 0 is no effect, 10 is complete control) (rice; [9]): 0
Rice plant response rating (0 to 10 scale, 0 is no effect, 10 is complete control) (rice; [10]): 0
Rice plant response rating (rice; [11]): 0
Rice plant response rating (rice; [12]): 0
Corn plant response rating (corn; [1]): 0
Corn plant response rating (corn; [2]): 0
Plant response rating, Corn (corn; [3]): 0
Plant response rating, Corn (corn; [4]): 2
Corn plant response rating (corn; [5]): 4
Corn plant response rating (corn; [6]): 7
Corn plant response rating (corn; [7]): 0
Corn plant response rating (corn; [8]): 0
Plant response rating, Barnyardgrass (0 to 10 scale, 0 is no effect, 10 is complete control) (bamyardgrass; [9]): 0
Barnyardgrass plant response rating (0 to 10 scale, 0 is no effect, 10 is complete control) (bamyardgrass; [10]): 0
Barnyardgrass plant response rating (bamyardgrass; [11]): 0
Barnyardgrass plant response rating (bamyardgrass; [12]): 0
Sugarbeets plant response rating (sugar beet; [1]): 0
Plant response rating, Sugarbeets (sugar beet; Preemergence, Rate 62 g/ha): 0
Plant response rating, Sugarbeets (sugar beet; Preemergence, Rate 125 g/ha): 1
Sugarbeets plant response rating (sugar beet; [5]): 3
Sugarbeets plant response rating (sugar beet; [6]): 6
Sugarbeets plant response rating (sugar beet; [7]): 0
Sugarbeets plant response rating (sugar beet; [8]): 0
Plant response rating, Ducksalad (0 to 10 scale, 0 is no effect, 10 is complete control) (duck salad; [9]): 0
Ducksalad plant response rating (0 to 10 scale, 0 is no effect, 10 is complete control) (duck salad; [10]): 0
Ducksalad plant response rating (duck salad; [11]): 0
Ducksalad plant response rating (duck salad; [12]): 0
Velvetleaf plant response rating (velvetleaf; [1]): 3
Plant response rating, Velvetleaf (velvetleaf; Preemergence, Rate 62 g/ha): 2
Plant response rating, Velvetleaf (velvetleaf; Preemergence, Rate 125 g/ha): 4
Velvetleaf plant response rating (velvetleaf; [5]): 5
Velvetleaf plant response rating (velvetleaf; [6]): 6
Velvetleaf plant response rating (velvetleaf; [7]): 0
Velvetleaf plant response rating (velvetleaf; [8]): 0
Cocklebur plant response rating (cocklebur; [1]): 0
Cocklebur plant response rating (cocklebur; [2]): 0
Plant response rating, Cocklebur (cocklebur; [3]): 0
Plant response rating, Cocklebur (cocklebur; [4]): 0
Cocklebur plant response rating (cocklebur; [5]): 0
Cocklebur plant response rating (cocklebur; [6]): 0
Cocklebur plant response rating (cocklebur; [7]): 0
Cocklebur plant response rating (cocklebur; [8]): 0
Rape plant response rating (rape; [1]): 0
Plant response rating, Rape (rape; Preemergence, Rate 62 g/ha): 0
Plant response rating, Rape (rape; Preemergence, Rate 125 g/ha): 3
Rape plant response rating (rape; [5]): 8
Rape plant response rating (rape; [6]): 9
Rape plant response rating (rape; [7]): 0
Rape plant response rating (rape; [8]): 0
Nutsedge plant response rating (purple nutsedge; [1]): 0
Plant response rating, Nutsedge (purple nutsedge; Preemergence, Rate 62 g/ha): 0
Plant response rating, Nutsedge (purple nutsedge; Preemergence, Rate 125 g/ha): 0
Nutsedge plant response rating (purple nutsedge; [5]): 0
Nutsedge plant response rating (purple nutsedge; [6]): 3
Nutsedge plant response rating (purple nutsedge; [7]): 0
Nutsedge plant response rating (purple nutsedge; [8]): 0
Blackgrass plant response rating (blackgrass; [1]): 9
Blackgrass plant response rating (blackgrass; [2]): 9
Plant response rating, Blackgrass (blackgrass; [3]): 3
Plant response rating, Blackgrass (blackgrass; [4]): 4
Blackgrass plant response rating (blackgrass; [5]): 6
Blackgrass plant response rating (blackgrass; [6]): 7
Blackgrass plant response rating (blackgrass; [7]): 6
Blackgrass plant response rating (blackgrass; [8]): 8
Plant response rating, S. Flatsedge (0 to 10 scale, 0 is no effect, 10 is complete control) (smallflower flatsedge; [9]): 0
S. Flatsedge plant response rating (0 to 10 scale, 0 is no effect, 10 is complete control) (smallflower flatsedge; [10]): 0
S. Flatsedge plant response rating (smallflower flatsedge; [11]): 0
S. Flatsedge plant response rating (smallflower flatsedge; [12]): 0
Wild oats plant response rating (wild oat; [1]): 0
Plant response rating, Wild oats (wild oat; Preemergence, Rate 62 g/ha): 0
Plant response rating, Wild oats (wild oat; Preemergence, Rate 125 g/ha): 3
Wild oats plant response rating (wild oat; [5]): 9
Wild oats plant response rating (wild oat; [6]): 10
Wild oats plant response rating (wild oat; [7]): 0
Wild oats plant response rating (wild oat; [8]): 0
Morningglory plant response rating (morningglory; [1]): 8
Plant response rating, Morningglory (morningglory; Preemergence, Rate 62 g/ha): 0
Plant response rating, Morningglory (morningglory; Preemergence, Rate 125 g/ha): 0
Morningglory plant response rating (morningglory; [5]): 0
Morningglory plant response rating (morningglory; [6]): 4
Morningglory plant response rating (morningglory; [7]): 3
Morningglory plant response rating (morningglory; [8]): 8
Wheat plant response rating (wheat; [1]): 0
Plant response rating, Wheat (wheat; Preemergence, Rate 62 g/ha): 0
Plant response rating, Wheat (wheat; Preemergence, Rate 125 g/ha): 0
Wheat plant response rating (wheat; [5]): 0
Wheat plant response rating (wheat; [6]): 2
Wheat plant response rating (wheat; [7]): 0
Wheat plant response rating (wheat; [8]): 0
